The record followed here is ChEMBL document CHEMBL3259575, “Evaluation of a large library of (thiazol-2-yl)hydrazones and analogues as histone acetyltransferase inhibitors: enzyme and cellular studies” (2014).

As usually defined, the inhibition is how much of the control response was suppressed.

The target of assay [1] is Histone acetyltransferase p300 (Homo sapiens) (UniProt Q09472). The experiment in a line: Inhibition of recombinant human p300 catalytic domain (1284 to 1673 aa) using histone H3 at 100 uM after 1 hr by radiochemical assay in presence of [acetyl-3H]-acetyl coenzyme A.
Chain of Histone acetyltransferase p300 (Homo sapiens) (Q09472 whole entry, the tested form may be a part): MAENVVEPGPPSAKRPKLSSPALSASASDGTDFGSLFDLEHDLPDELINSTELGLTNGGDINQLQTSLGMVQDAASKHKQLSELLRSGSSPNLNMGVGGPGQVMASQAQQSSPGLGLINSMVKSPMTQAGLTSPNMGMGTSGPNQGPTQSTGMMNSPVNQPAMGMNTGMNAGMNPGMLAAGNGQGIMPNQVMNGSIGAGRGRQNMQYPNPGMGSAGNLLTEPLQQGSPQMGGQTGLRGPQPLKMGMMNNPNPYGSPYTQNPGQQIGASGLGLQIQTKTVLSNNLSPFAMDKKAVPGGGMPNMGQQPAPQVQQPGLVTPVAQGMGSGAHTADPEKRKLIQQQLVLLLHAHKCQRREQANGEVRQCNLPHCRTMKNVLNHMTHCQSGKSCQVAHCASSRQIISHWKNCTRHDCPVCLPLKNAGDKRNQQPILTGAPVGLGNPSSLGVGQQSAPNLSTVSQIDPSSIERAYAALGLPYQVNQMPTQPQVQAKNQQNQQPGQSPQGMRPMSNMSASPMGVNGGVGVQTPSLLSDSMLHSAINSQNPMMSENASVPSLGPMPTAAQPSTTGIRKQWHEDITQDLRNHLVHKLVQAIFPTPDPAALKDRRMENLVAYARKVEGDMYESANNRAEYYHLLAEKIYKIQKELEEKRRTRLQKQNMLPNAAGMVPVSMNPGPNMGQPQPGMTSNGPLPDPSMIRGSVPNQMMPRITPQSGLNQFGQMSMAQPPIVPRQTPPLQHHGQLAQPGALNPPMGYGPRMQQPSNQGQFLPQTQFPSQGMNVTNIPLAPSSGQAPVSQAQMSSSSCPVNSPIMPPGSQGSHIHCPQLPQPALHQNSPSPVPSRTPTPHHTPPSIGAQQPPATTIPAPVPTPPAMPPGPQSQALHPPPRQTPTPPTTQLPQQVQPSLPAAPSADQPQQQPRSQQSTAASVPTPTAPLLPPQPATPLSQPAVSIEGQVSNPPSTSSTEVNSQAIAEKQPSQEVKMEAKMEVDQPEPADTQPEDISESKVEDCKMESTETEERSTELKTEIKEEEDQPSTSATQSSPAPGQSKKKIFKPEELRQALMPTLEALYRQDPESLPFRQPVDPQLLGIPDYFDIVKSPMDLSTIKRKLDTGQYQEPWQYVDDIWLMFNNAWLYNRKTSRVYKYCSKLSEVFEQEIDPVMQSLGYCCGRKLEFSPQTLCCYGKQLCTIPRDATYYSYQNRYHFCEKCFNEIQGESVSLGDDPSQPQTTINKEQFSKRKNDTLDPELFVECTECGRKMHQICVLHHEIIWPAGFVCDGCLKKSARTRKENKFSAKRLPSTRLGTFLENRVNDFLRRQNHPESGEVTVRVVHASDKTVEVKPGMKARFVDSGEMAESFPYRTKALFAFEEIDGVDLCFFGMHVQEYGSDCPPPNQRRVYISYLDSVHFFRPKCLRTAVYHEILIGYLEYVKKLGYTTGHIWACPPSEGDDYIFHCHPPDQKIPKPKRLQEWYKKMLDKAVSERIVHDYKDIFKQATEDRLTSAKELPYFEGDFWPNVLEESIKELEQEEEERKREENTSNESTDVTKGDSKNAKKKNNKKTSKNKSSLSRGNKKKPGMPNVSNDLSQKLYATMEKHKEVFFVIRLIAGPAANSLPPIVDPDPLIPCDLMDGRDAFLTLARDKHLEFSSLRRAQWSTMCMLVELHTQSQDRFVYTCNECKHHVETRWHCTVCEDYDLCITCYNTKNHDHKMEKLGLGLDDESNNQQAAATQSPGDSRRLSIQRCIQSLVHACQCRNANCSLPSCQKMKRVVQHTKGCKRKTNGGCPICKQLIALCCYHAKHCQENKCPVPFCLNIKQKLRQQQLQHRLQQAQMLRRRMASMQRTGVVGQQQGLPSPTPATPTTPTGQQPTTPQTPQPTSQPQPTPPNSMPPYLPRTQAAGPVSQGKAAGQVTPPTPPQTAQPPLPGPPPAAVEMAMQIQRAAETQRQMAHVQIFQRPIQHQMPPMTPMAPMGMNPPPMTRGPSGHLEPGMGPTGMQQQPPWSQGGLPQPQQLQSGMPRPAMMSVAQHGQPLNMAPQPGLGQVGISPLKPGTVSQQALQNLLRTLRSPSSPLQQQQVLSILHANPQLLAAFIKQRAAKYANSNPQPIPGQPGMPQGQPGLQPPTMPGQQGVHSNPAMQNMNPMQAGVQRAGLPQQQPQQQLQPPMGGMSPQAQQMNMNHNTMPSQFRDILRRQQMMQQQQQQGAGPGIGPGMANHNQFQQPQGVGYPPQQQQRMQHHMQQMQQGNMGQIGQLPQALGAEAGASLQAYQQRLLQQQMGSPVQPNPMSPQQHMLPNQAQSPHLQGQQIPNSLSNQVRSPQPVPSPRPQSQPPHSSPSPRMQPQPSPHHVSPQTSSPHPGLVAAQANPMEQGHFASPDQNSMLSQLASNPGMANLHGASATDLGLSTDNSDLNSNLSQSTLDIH
In assay [2] the target is Histone acetyltransferase KAT2B (Homo sapiens) (UniProt Q92831). The experiment in a line: Inhibition of recombinant human PCAF catalytic domain (492 to 658 aa) using histone H3 at 100 uM after 1 hr by radiochemical assay in presence of [acetyl-3H]-acetyl coenzyme A.
Chain of Histone acetyltransferase KAT2B (Homo sapiens) (Q92831 whole entry, looked up, the tested form may be a part): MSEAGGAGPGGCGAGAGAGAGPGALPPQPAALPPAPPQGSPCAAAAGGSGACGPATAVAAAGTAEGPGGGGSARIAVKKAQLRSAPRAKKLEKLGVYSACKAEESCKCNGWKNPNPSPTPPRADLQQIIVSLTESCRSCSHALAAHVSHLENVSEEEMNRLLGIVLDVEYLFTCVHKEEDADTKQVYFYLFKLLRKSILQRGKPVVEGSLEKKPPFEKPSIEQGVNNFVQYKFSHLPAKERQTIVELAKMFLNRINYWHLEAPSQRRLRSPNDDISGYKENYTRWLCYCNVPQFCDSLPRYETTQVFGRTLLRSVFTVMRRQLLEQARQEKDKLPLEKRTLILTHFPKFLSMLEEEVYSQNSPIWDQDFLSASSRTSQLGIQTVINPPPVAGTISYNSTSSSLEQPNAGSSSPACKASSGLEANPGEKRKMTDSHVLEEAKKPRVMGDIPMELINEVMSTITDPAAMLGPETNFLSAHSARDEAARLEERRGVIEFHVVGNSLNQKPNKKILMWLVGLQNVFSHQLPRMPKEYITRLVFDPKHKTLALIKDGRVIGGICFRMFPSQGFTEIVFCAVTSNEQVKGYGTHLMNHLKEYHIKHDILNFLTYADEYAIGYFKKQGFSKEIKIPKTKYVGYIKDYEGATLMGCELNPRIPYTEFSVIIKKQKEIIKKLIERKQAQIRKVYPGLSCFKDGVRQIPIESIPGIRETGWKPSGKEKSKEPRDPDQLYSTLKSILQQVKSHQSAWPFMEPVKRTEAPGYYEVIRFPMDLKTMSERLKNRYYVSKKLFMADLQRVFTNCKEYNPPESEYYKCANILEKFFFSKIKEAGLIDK
The target of assay [3] is Histone acetyltransferase p300 (Homo sapiens) (UniProt Q09472). The experiment in a line: Inhibition of recombinant human p300 catalytic domain (1284 to 1673 aa) using histone H3 at 400 uM after 1 hr by radiochemical assay in presence of [acetyl-3H]-acetyl coenzyme A.
For assay [4] the target is unchanged. The experiment in a line: Inhibition of recombinant human p300 catalytic domain (1284 to 1673 aa) using histone H3 at 200 uM after 1 hr by radiochemical assay in presence of [acetyl-3H]-acetyl coenzyme A.

Turning to `Clc1ccc(-c2csc(NN=C3CCCCCCC3)n2)cc1`, the results for the inhibition in assay [1] and in assay [2] were 15% and 6%, respectively.

Consider `Cc1sc(NN=C2CCCC2)nc1-c1ccccc1`, for which the inhibition in assay [1] and in assay [2] was 2% each time.

In the case of `Nc1nc(-c2ccc(Cl)cc2)cs1`, the inhibition in assay [1] came to 31%; in assay [2], 0%.

Regarding `COc1ccc(-c2csc(N/N=C3/CCCC3C)n2)cc1` (centres undefined), the inhibition is 32% in assay [1] and 2% in assay [2].

On to `C/C(=N/Nc1nc(-c2ccc(Cl)cc2)cs1)c1cccs1`, for which the inhibition in assay [1] was determined as 26%; in assay [2], 5%.

Consider `O=C1CSC(NN=C2CCCC2)=N1`, for which the inhibition in assay [1] turned out to be 0%; in assay [2], 1%.

Consider `O=c1cc(-c2ccc(Br)cc2)nc(NN=C2CCCC2)[nH]1`, for which the inhibition in assay [1] was found to be 9%.

Consider `Cc1sc(N/N=C2/CCC(C)C2)nc1-c1ccccc1` (centres undefined), for which the inhibition came to 15% in assay [1] and 3% in assay [2].

For `CC1CC/C(=N/Nc2nc(-c3ccc(F)cc3)cs2)C1` (centres undefined), the inhibition in assay [1] came out at 5%; in assay [2], 8%.

For the compound `CC(C)=NNc1nc(-c2ccccc2)c(C)s1`, the inhibition in assay [1] worked out at 20%; in assay [2] it was 5%.

With `CC(C)=NNc1nc(-c2ccc(Cl)cc2)cc(=O)[nH]1`, the inhibition in assay [1] amounted to 7%.

With `CC(C)=NNc1nc(-c2cc3ccccc3oc2=O)cs1`, the inhibition in assay [1] was found to be 32%; in assay [3] it was 56%; in assay [4], 46%; in assay [2], 12%.

Turning to `CC(C)=NNc1nc(C)cs1`, the inhibition in assay [1] amounted to 13%; in assay [2], 3%.

As to `Clc1ccc(-c2csc(NN=C3CCCCCC3)n2)cc1`, the inhibition in assay [1] stood at 20%; in assay [2], 0%.

Consider `COc1ccc(-c2csc(N/N=C3/CCC(C)C3)n2)cc1` (centres undefined), for which the figures for the inhibition in assay [1] and in assay [2] were 28% and 5%, respectively.

Take `CCCC/C(C)=N/Nc1nc(-c2ccc(Cl)cc2)cs1`: the inhibition in assay [1] is 0%; in assay [2], 8%.

In the case of `CC1CC/C(=N/Nc2nc(-c3ccccc3)cc(=O)[nH]2)C1` (centres undefined), the inhibition in assay [1] was found to be 0%.

Consider `CC(C)=NNc1nc(-c2ccc(Br)cc2)cs1`, for which the inhibition in assay [1] turned out to be 42%; in assay [3] it was 63%; in assay [4] it was 53%; in assay [2] it was 13%.

`CC1(C)C=C/C(=N\Nc2nc(-c3ccc(Cl)cc3)cs2)CC1`: the inhibition in assay [1] and in assay [2] was 0% each time.

As to `CCCCC/C(C)=N/Nc1nc(-c2ccc(Cl)cc2)cs1`, the results for the inhibition in assay [1] and in assay [2] were 5% and 16%, respectively.

In the case of `C/C(=N/Nc1nc(-c2ccc(Cl)cc2)cs1)C1c2ccccc2-c2ccc(C(=O)O)cc21` (centres undefined), the inhibition in assay [1] was determined as 37%; in assay [2] it was 14%.

For the compound `CCC(C)/C(C)=N/Nc1nc(-c2ccc(Cl)cc2)cs1` (centres undefined), the values for the inhibition in assay [1] and in assay [2] were 2% and 9%, respectively.

As for `CCOC(=O)c1csc(NN=C(C)C)n1`, the inhibition in assay [1] worked out at 22%; in assay [2], 0%.

As to `COc1cccc(-c2csc(NN=C3CCCC3)n2)c1`, the inhibition in assay [1] was 31%; in assay [3], 62%; in assay [4], 51%; in assay [2], 11%.

For `Cc1csc(NN=C2CCCC2)n1`, the inhibition in assay [1] was 0%; in assay [2], 30%.

In the case of `CC(C)=NNc1nc(-c2ccc(Cl)cc2)cs1`, the inhibition came to 31% in assay [1], 60% in assay [3], 45% in assay [4] and 1% in assay [2].

With `CC1CC/C(=N/Nc2nc(-c3ccc(C#N)cc3)cs2)C1` (centres undefined), the results for the inhibition in assay [1] and in assay [2] were 35% and 6%, respectively.

On to `Clc1ccc(-c2csc(NN=C3CCCC3)n2)c(Cl)c1`, for which the inhibition was found to be 30% in assay [1] and 21% in assay [2].

`COc1ccc(-c2csc(N/N=C3\CCC[C@@H](C)C3)n2)cc1`: the figures for the inhibition in assay [1] and in assay [2] were 27% and 0%, respectively.

Take `O=c1cc(-c2ccccc2)nc(NN=C2CCCC2)[nH]1`: the inhibition in assay [1] came to 3%.

As to `COc1ccc(-c2csc(N/N=C3/CCCC(C)C3)n2)cc1` (centres undefined), the inhibition was 19% in assay [1] and 4% in assay [2].

For `C/C(=N/Nc1nc(-c2ccc(Cl)cc2)cs1)c1ccccc1`, the inhibition in assay [1] is 7%; in assay [2], 9%.

`C/C(=N/Nc1nc(-c2ccc(Cl)cc2)cs1)C1CCCCC1`: the inhibition was 3% in assay [1] and 8% in assay [2].

In the case of `CC(C)=NNc1nc(-c2ccc(Br)cc2)cc(=O)[nH]1`, the inhibition in assay [1] turned out to be 9%.

Regarding `Clc1ccc(-c2csc(N/N=C\c3cccnc3)n2)cc1`, the inhibition came to 28% in assay [1] and 17% in assay [2].

On to `CC1CC/C(=N/Nc2nc(-c3ccc(Br)cc3)cc(=O)[nH]2)C1` (centres undefined), for which the inhibition in assay [1] was 12%.

As to `CC(C)=NNc1nc(-c2ccc(F)cc2)cs1`, the inhibition in assay [1] was found to be 34%; in assay [2], 0%.

As to `C[C@@H]1CCC/C(=N/Nc2nc(-c3ccc(Cl)cc3)cs2)C1`, the inhibition in assay [1] was 27%; in assay [2], 0%.

In the case of `CCC/C(C)=N/Nc1nc(-c2ccc(Cl)cc2)cs1`, the inhibition in assay [1] is 19%; in assay [2], 7%.

As to `NNc1nc(-c2ccccc2)cs1`, the inhibition in assay [1] came out at 5%; in assay [2], 16%.

Take `COc1cccc(-c2csc(NN=C(C)C)n2)c1`: the inhibition in assay [1] amounted to 30%; in assay [2] it was 4%.

On to `CC(C)=NNc1nc(-c2ccc3ccccc3c2)cs1`, for which the inhibition in assay [1] turned out to be 25%; in assay [2] it was 10%.

With `CC(C)=NNc1nc(-c2ccccc2)cs1`, the inhibition was 14% in assay [1] and 0% in assay [2].

Take `CC(C)=NNc1nc(-c2ccc(Cl)cc2Cl)cs1`: the results for the inhibition in assay [1] and in assay [2] were 30% and 16%, respectively.

Turning to `CC1CCC/C(=N/Nc2nc(-c3ccc(Cl)cc3)cs2)C1` (centres undefined), the figures for the inhibition in assay [1] and in assay [2] were 9% and 0%, respectively.

On to `COc1ccc(-c2csc(NN=C3CCCCCC3)n2)cc1`, for which the inhibition in assay [1] stood at 16%; in assay [2], 0%.

Take `c1ccc2cc(-c3csc(NN=C4CCCC4)n3)ccc2c1`: the inhibition in assay [1] came to 19%; in assay [2], 8%.

In the case of `CC(C)=NNc1nc(-c2ccc(-c3ccccc3)cc2)cs1`, the inhibition is 20% in assay [1] and 0% in assay [2].

In the case of `Clc1ccc(-c2csc(N/N=C\c3cccc4ccccc34)n2)cc1`, the inhibition in assay [1] was found to be 9%; in assay [2] it was 0%.

Consider `O=c1cc(-c2cccc([N+](=O)[O-])c2)nc(NN=C2CCCC2)[nH]1`, for which the inhibition in assay [1] was found to be 9%.

Consider `CC1CC/C(=N/Nc2nc(-c3ccc4ccccc4c3)cs2)C1` (centres undefined), for which the inhibition in assay [1] was found to be 4%; in assay [2], 0%.

For the compound `CCC(CC)=NNc1nc(-c2ccc(Cl)cc2)cs1`, the figures for the inhibition in assay [1] and in assay [2] were 35% and 10%, respectively.

Turning to `CC1CC/C(=N/Nc2nc(-c3cccc([N+](=O)[O-])c3)cc(=O)[nH]2)C1` (centres undefined), the inhibition in assay [1] came to 14%.

`CC(C)=NN=C1NC(=O)CS1`: the inhibition is 14% in assay [1] and 7% in assay [2].

As to `Clc1ccc(-c2csc(N/N=C\c3ccco3)n2)cc1`, the inhibition in assay [1] was found to be 15%; in assay [2] it was 9%.

Turning to `CC(C)=NNc1nc(-c2ccccc2)cc(=O)[nH]1`, the inhibition in assay [1] is 4%.

For the compound `CC/C(C)=N/Nc1nc(-c2ccc(Cl)cc2)cs1`, the inhibition in assay [1] amounted to 33%; in assay [2], 8%.

Turning to `C/C(=N/Nc1nc(-c2ccc(Cl)cc2)cs1)c1cccnc1`, the inhibition in assay [1] amounted to 1%; in assay [2], 11%.

As for `CC1CC/C(=N/Nc2nc(-c3ccc(F)cc3F)cs2)C1` (centres undefined), the results for the inhibition in assay [1] and in assay [2] were 14% and 18%, respectively.

In the case of `CCOC(=O)c1csc(N/N=C2/CCC(C)C2)n1` (centres undefined), the inhibition in assay [1] stood at 22%; in assay [2], 8%.

Turning to `C/C(=N/Nc1nc(-c2ccc(Cl)cc2)cs1)c1ccncc1`, the results for the inhibition in assay [1] and in assay [2] were 36% and 10%, respectively.

Regarding `COc1ccc(-c2csc(NN=C(C)C)n2)cc1`, the values for the inhibition in assay [1] and in assay [2] were 21% and 5%, respectively.

Consider `CC(C)=NNc1nc(-c2cccc([N+](=O)[O-])c2)cc(=O)[nH]1`, for which the inhibition in assay [1] came to 4%.

Take `Clc1ccc(-c2csc(N/N=C\c3cccs3)n2)cc1`: the inhibition in assay [1] was determined as 13%; in assay [2] it was 4%.

Take `CCOC(=O)c1csc(NN=C2CCCC2)n1`: the inhibition is 19% in assay [1] and 5% in assay [2].

Consider `CCCCCC/C(C)=N/Nc1nc(-c2ccc(Cl)cc2)cs1`, for which the figures for the inhibition in assay [1] and in assay [2] were 8% and 10%, respectively.

For `C/C(=N/Nc1nc(-c2ccc(Cl)cc2)cs1)c1ccc2ccccc2c1`, the inhibition in assay [1] is 16%; in assay [2], 7%.

Turning to `C/C(=N/Nc1nc(-c2ccc(Cl)cc2)cs1)c1ccco1`, the figures for the inhibition in assay [1] and in assay [2] were 26% and 2%, respectively.

For `Clc1ccc(-c2csc(N/N=C\c3ccc4c(c3)OCO4)n2)cc1`, the figures for the inhibition in assay [1] and in assay [2] were 11% and 0%, respectively.

In the case of `Clc1ccc(-c2csc(N/N=C\c3ccncc3)n2)cc1`, the inhibition in assay [1] was found to be 37%; in assay [2], 13%.

Turning to `CC1CCC/C1=N/Nc1nc(-c2ccc(Cl)cc2)cs1` (centres undefined), the results for the inhibition in assay [1] and in assay [2] were 33% and 2%, respectively.

Turning to `Nc1nc(-c2ccccc2)cs1`, the inhibition amounted to 4% in assay [1] and 3% in assay [2].

Regarding `C=CCC/C(C)=N/Nc1nc(-c2ccc(Cl)cc2)cs1`, the figures for the inhibition in assay [1] and in assay [2] were 32% and 12%, respectively.
